Results reported in patent publication US20220412958A1, “METHOD FOR EVALUATING SAFETY OF SUBSTANCE IN VITRO USING HUMAN IMMORTALIZED MYELOID CELLS” (MiCAN Technologies Inc., priority 2019, published 2022).

Assays:
iPS-ML2 [1] = assay: Evaluation test of skin sensitizing property and/or pyrogenic property: IL-6/IL-8 production by immortalized monocytes (ELISA); assay type: cell-based, human; settings: iPS-ML2, 6 hr after addition, culture supernatant ELISA; negative control = medium alone; test substance up to 200 μg/mL
Excerpt: (§1) 1. […] 2. […] This operation was repeated once more. 3. […] 4. […] 5. […] 6. […] 7. […] 8. […] 9. […] 10.

mouse = settings: in vivo; cited from earlier work
iPS-ML2 [2] = assay: Detection test of skin sensitizer and/or pyrogen: IL-6/IL-8 production by immortalized monocytes (ELISA); assay type: cell-based, human; settings: iPS-ML2, both 6 hr and 24 hr after culturing; negative control = culture medium alone
Excerpt: as §1

Compound: CC(O)C(=O)O (centres unmarked) [N7, Lactic acid]
- production of IL-6 compared with the negative control (iPS-ML2 [1]): did not show production
- production of IL-8 compared with the negative control (iPS-ML2 [1]): did not show production

Compound: Nc1ccc(N)cc1 [P2, 4-Phenylenediamine]
- skin sensitizing property in LLNA (mouse): have skin sensitizing property

Compound: Staphylococcus aureus Cowan 1 [SAC]
- production amount of IL-6 in the culture supernatant with respect to the negative control (iPS-ML2 [2]): increased as the dilution rate became smaller
- production amount of IL-8 in the culture supernatant with respect to the negative control (iPS-ML2 [2]): increased as the dilution rate became smaller
